Data set [1] relates to GFP-labeled P. aeruginosa PAO1-L biofilms. The data set is described as follows: Biofilm viability assay, method 2 (tobramycin, GFP-labeled biofilm, PI). It counts as cell-based, Pseudomonas aeruginosa. On the procedure:
Biofilms of PAO1-L were also tested for the impact of 6f on the potentiation of tobramycin activity (method 2).
Figure 7 Effect of 6f and tobramycin on GFP-labeled P. aeruginosa PAO1-L biofilms. (A) Representative CLSM images: (a) Untreated biofilm; (b) biofilm grown with 6f at 1 μM for 16 h; (c) biofilm treated with 100 μg/mL tobramycin for 2 or 6 h after 16 h of growth; (d) biofilm grown with 1 μM 6f and treated with (6f 1 μM), tobramycin (100 μg/mL) for 2 or 6 h after 16 h of growth. Dead cells and extracellular DNA were stained red with propidium iodide (PI). Three-dimensional (3D) sections and cross sections are shown. Scale bar represents 100 μm. (B) Quantitative analysis of biofilm biomass at different conditions of treatment compared with a solvent vehicle control.
Biofilms were cultivated on borosilicate glass coverslips in Petri dishes. P. aeruginosa strains, […], was transformed with plasmid pMMG, which constitutively expresses GFP from the Ptac promoter.[50] The tagged strain was grown at 37 °C, for 16 h, in 2 mL of RPMI-1640 (Lonza, Slough, UK), supplemented with 20 mM D-glucose (Sigma–Aldrich, Dorset, UK) and 2 μM FeCl3 (Sigma–Aldrich, Dorset, UK). Cultures were diluted 1:100 in fresh medium and allowed to grow for a further 4 h, or until an OD600 of 0.5 was reached. The mid logarithmic cultures were diluted to an OD600 of 0.01 in 25 mL of RPMI, supplemented with glucose and FeCl3, and inoculated into Petri dishes containing UV sterilized borosilicate glass coverslips (22 mm × 22 mm, thickness no1) (VWR, Lutterworth, UK). Bacterial cells were seeded at 37 ◦C under static conditions for 1.5 h, and compound 6f was supplemented to the 6f treated samples (6f, 6f + Tob samples) at a concentration of 1 μM before dishes were transferred to a shaker at 60 rpm and 37 ◦C for 16 h to form mature biofilms. Tobramycin and propidium iodide were added to the 16 h old cultures at concentrations of 100 μg/mL and 2 μM, respectively, followed by further incubation for 2 or 6 h. […]

On the set-up of data set [2]: method as in PMID 33073099. As to conditions: human microsomes; cited from earlier work.
On the set-up of data set [3]: method as in PMID 33073099. As to conditions: rats; intratracheal; coarse suspension; cited from earlier work.
On the set-up of data set [4]: method as in PMID 33073099. As to conditions: rat microsomes; cited from earlier work.
Data set [5] deals with pyocyanin production in P. aeruginosa. The data set is described as follows: Pyocyanin quantification. The format is cell-based, Pseudomonas aeruginosa. As to conditions: for pyocyanin production: 6f 200 nM. On the procedure: This assay was extended further to investigate the effect of 6f on pyocyanin production in different P. aeruginosa at 6f concentration of 200 nM (Figure 5b).
The experiment was performed following a published protocol with minor modifications. Strains were cultured into 5 mL of fresh medium overnight. […] Cells were centrifuged at 10 000 RCF for 10 min (Allegra 64R centrifuge, Beckman Coulter, High Wycombe, UK), and the supernatant was transferred to 15 mL falcon tubes with a HSW 10 mL Soft-Ject Syringe and a […] Sartorius syringe-driven filter (Fisher Brand, Loughborough, UK). Pyocyanin pigment was extracted into chloroform by mixing 7.5 mL of supernatant with 4.5 mL of chloroform. Pyocyanin was further extracted into 1.5 mL of 0.2 M HCL, which gave a pink/red solution, and the absorbance was measured at 520 nm.[47]

The subject of data set [6] is PqsR (PqsR-controlled pqsA promoter, PAO1-L mCTX::PpqsA-lux). The data set is described as follows: Bioluminescent reporter assay, PAO1-L mCTX::PpqsA-lux. As to conditions: Pseudomonas aeruginosa, PAO1, read-out: IC50 (μM) PAO1-L mCTX::PpqsA-lux. It counts as cell-based, Pseudomonas aeruginosa. On the procedure: (§1) An extensive SAR was performed on 6a to investigate the role of substitutions around various positions of the benzimidazole ring (groups R1–R3) as well as the aromatic tail (groups R4–R5) to fine-tune the potency of this series (6a–u) (Table 2). The activity of these analogues to inhibit the pqs QS system was evaluated in the PAO1-L and PA14 strains (that belong to the two major P. aeruginosa genomic lineages), both harboring a chromosomally integrated mCTX::PpqsA-lux transcriptional fusion to report for the activity of pqs system. Successful pharmacological blocking of AQ signal reception at the level of PqsR leads to a reduced transcription of the pqsA-lux genes and ultimately reduction in the luminescence readout.
(§2) Strains PA14 mCTX::PpqsA-lux and PAO1-L mCTX::PpqsA-lux were used to detect PqsR-controlled activation of the pqsA promoter, as previously described,[45] and the assay was performed according to a published method.[46] For initial screening, the compounds were tested at a concentration of 10 μM, which was prepared from a 10 mM stock, in DMSO.
On the technique in general: In a reporter assay the amount or activity of a reporter protein is the signal.

The subject of data set [7] is PqsR (PqsR-controlled pqsA promoter, PA14 mCTX::PpqsA-lux). Description: Bioluminescent reporter assay, PA14 mCTX::PpqsA-lux. It counts as cell-based. As to conditions: Pseudomonas aeruginosa, PA14, read-out: IC50 (μM) PA14 mCTX::PpqsA-lux. On the procedure:
as §1, §2

Where two headings read alike, the source gives them in different places.

With `CC(C)n1c(NCC(O)COc2ccc(CC#N)cc2)nc2ccc(Cl)cc21` (stereo not drawn) [Compound 6f, 2-(4-(3-((6-Chloro-1-isopropyl-1H-benzo[d]imidazol-2-yl)amino)-2-hydroxypropoxy)phenyl) Acetonitrile], the “biofilm killing, combination with tobramycin” value in data set [1] (6f 1 μM + tobramycin 100 μg/mL, 2 and 6 h of incubation) is reported as “enhanced the killing”. Further, the “live cells in biofilm, combination with tobramycin” value in data set [1] (6f 1 μM + tobramycin 100 μg/mL, 6 h) is “no live cells present”. Also, the “viability of preformed biofilms, 6f on its own” value in data set [1] (PAO1-L biofilm, 6f 1 μM) is given as “did not impact on the viability”. For the same compound, the half-life entry in data set [2] and in data set [4] was “relatively short” throughout. Moreover, the “clearance from lung to plasma” value in data set [3] is on record as “rapid clearance”. Moreover, the systemic clearance result in data set [3] is “fast systemic clearance”. The pyocyanin production result in data set [5] (IPCD1451) was “nonsignificant inhibition”; in data set [5] (all strains except IPCD1451), “inhibited pyocyanin production”. In data set [5] (PAO1-L, concentration three times the IC50, relative to DMSO), the “inhibition of pyocyanin production” value is reported as roughly 80%. In addition, the half-inhibitory concentration (IC50) (as a rule, the concentration that gives 50% inhibition) was 0.07 ± 0.02 µM in data set [6] and 0.09 ± 0.01 µM in data set [7].

The record behind these values is publication PMC10823468, “Design, Synthesis, and Evaluation of New 1H-Benzo[d]imidazole Based PqsR Inhibitors as Adjuvant Therapy for Pseudomonas aeruginosa Infections” (Journal of Medicinal Chemistry, 2024).
